Columns and labels:
Type in all cases: cell-based, human
HL60 cells [1] = experiment: Western blot of signaling pathways (MAPKs, Akt) in HL60 cells
Protocol: Protein analyses were performed by Western blot in several sets of assays: expression pattern of CBs-receptors in AML cell lines and primary cells, and time course after treatment with cannabinoids in AML cell lines.
Cells were solubilized with ice-cold lysis buffer containing 2% ASB-14 (CalbioChem, San Diego, Calif., USA), 1% Nonidet P-40 (Ipegal®), 137 mM NaCl, 20 mM Tris-HCl pH 7.5 at 4° C. (all from Sigma-Aldrich), 2 mM Na3VO4, 20 mM NaF (New England BioLabs Inc., Ipswich, Mass., USA), 2 mM DTT (AppliChem, Darmstadt, Germany), protease inhibitor cocktail (Roche Diagnostics GmbH, Mannheim, Germany), and 10 ul Nuclease Mix (Amersham GE Healthcare, Uppsala, Sweden). Insoluble materials were removed by centrifugation at 13,000×g for 15 min at 4° C. Protein content was determined by Pierce® Microplate BCA Protein Assay kit-Reducing Agent Compatible (Thermo Fisher Scientific).
(§1) Extracted proteins (15-25 ug/well) were separated by sodium dodecyl sulfate-polyacrylamide gel electrophoresis (SDS/PAGE) in pre-cast polyacrylamide gels AnykD (Bio-Rad Laboratories, Hercules, Calif., USA) under reducing and denaturing conditions. Electrophoretic run was performed at a constant current of 15 mA per gel in a Mini-Protean® Tetra Cell (Bio-Rad Laboratories) and were electrophoretically transferred onto PVDF membranes using Trans-Blot® Turbo™ System (Bio-Rad Laboratories). Blocking was performed with 2% bovine serum albumin [(BSA), Santa Cruz Biotechnology] in Tween-Tris buffer saline (TTBS). Membranes were incubated overnight at 4° C. with corresponding primary antibody in TTBS.
Detection was performed using Western Blotting Luminol Reagent (Santa Cruz Biotechnology).
Signaling pathways targeted by cannabinoids in leukemic cells. To get further insights into the mechanisms of cannabinoids-induced apoptosis, we assessed the expression profile of phosphorylated-JNK, -Erk1/2, -p38 MAPK and -Akt by Western blot.

HL60 cells [2] = experiment: Western blot of ER-stress regulator proteins in HL60 cells; conditions: HL60, WIN-55 50 uM
Protocol: FIG. 19. […] Expression analysis by Western blot of regulator proteins of ER-stress in HL60 cells treated with WIN-55 50 uM.
as §1

U266 cells = experiment: Western blot time course of apoptotic proteins in U266 cells
Protocol: Protein analyses were performed by Western blot in several sets of assays: expression pattern of CBs-receptors in MM cell lines and primary cells, and time course after treatment with cannabinoids in MM cell lines. Time-course assays were performed at 0, 2, 6, 18 and 24 hours. Anyway, obtaining cell lysates was conducted according to a protocol adapted to phosphorylation-dependent signaling, described by Gilbert et al. (2002). Briefly, 10e7 cells per condition were harvested at indicated times, washed with iced-cold PBS and lysate in isotonic lysis buffer 30 min keeping on ice. Isotonic lysis buffer contained 2% ASB-14 (CalbioChem, San Diego, Calif., USA),1% Nonidet P-40 (Ipegal®), 137 mM NaCl, 20mM Tris-HCl pH 7.5 at 4° C. (all from Sigma-Aldrich), 2 mM Na3VO4, 20 mM NaF (New England BioLabs Inc., Ipswich, Mass., USA), 2 mM DTT (AppliChem, Darmstadt, Germany), protease inhibitor cocktail (Roche Diagnostics GmbH, Mannheim, Germany), and 10 ul Nuclease Mix (Amersham GE Healthcare, Uppsala, Sweden). After lysis, samples were centrifuged at 13,000×g for 5 min at 4° C., and supernatants collected. Protein concentration in samples was determined by Pierce® Microplate BCA Protein Assay kit-Reducing Agent Compatible (Thermo Fisher Scientific). Before loading the samples in the gel, they were diluted in loading sample buffer (0.125 M Tris-HCl pH 6.8, 4% SDS, 20% glycerol, 0.02% Bromophenol Blue, 200 mM DTT) and the mixture was heated at 70° C. for 5 min in a thermoblock (LabNet International, N.J., USA).
Samples (15-25 ug/lane) were subjected to SDS/PAGE in pre-cast polyacrylamide gels AnykD (Bio-Rad Laboratories, Hercules, CA, USA) under reducing and denaturing conditions. Electrophoretic run was performed at a constant current of 15 mA per gel in a Mini-Protean® Tetra Cell (Bio-Rad Laboratories). Once proteins were separated by electrophoresis, were transferred onto PVDF membranes using Trans-Blot® Turbo™ System (Bio-Rad Laboratories). Electrotransference was conducted at constant amperage of 1.2 mA and at up to 25 V of voltage. The blotted membranes were then blocked with 2% bovine serum albumin [(BSA), Santa Cruz Biotechnology] in Tween-Tris buffer saline (TTBS) for 30 min with gentle agitation, and incubated overnight at 4° C. with corresponding primary antibody in TTBS. After twice washing with TTBS, membranes were incubated for 1-2 h at room temperature with suitable conjugated-HRP secondary antibody, and subjected to chemiluminescence detection using Western Blotting Luminol Reagent (Santa Cruz Biotechnology). […]
The antiproliferative effect of cannabinoids is mediated by apoptotic mechanisms. […] Next, we evaluated Casp-3 activation using an antibody that recognizes the active forms of Casp-3, this is, the 17 kDa- and 12 kDa-cleaved forms. […]

CS(=O)(=O)O.Cc1c(C(=O)c2cccc3ccccc23)c2cccc3c2n1[C@H](CN1CCOCC1)CO3 [WIN-55, (R)-(+)-[2,3-dihydro-5-methyl-3-(4-morpholinylmethyl)-pyrrolo-[1,2,3]-1,4-benzoxazin-6-yl]-1-naphthalenylmethanone mesylate]
p-Erk1/2 (HL60 cells [1]; HL60, WIN-55 50 uM): slightly up-regulated | p-Akt (HL60 cells [1]; HL60, time-dependent): significantly downregulated | p-p38 MAPK (HL60 cells [1]; HL60, time-dependent): moderately downregulated | ER-stress in AML cells (HL60 cells [2]): increase the ER-stress | time after exposure at which the 89 kDa PARP fragment became detectable (U266 cells; U266): 2 h | expression of the two active-cleaved forms of Casp-3 (17 kDa and 12 kDa) (U266 cells; U266, time course): increased over time | 89 kDa fragment of PARP (U266 cells; U266, time course 0-24 h): increase | full-length PARP (U266 cells; U266, time course 0-24 h): decrease
